This note sets out measurements from PubChem BioAssay AID250 (DTP/NCI, 2004).

SMILES strings stand for the structures. Where “and” joins values, the source holds several entries; their conditions need not be identical. Equal entries are not always repeated. Inconclusive results and toxic doses are left out.

In this assay the test system is BDF1 mice, L1210 leukemia sc, survival T/C. Put plainly: NCI In Vivo Anticancer Drug Screen. Data for tumor model L1210 Leukemia (subcutaneous) in B6D2F1 (BDF1) mice. Particulars: higher = longer survival. An outline of the steps:
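Mice carrying transplanted tumors received test compounds, and survival or tumor size was measured. Values are the treated-group measurement (T) divided by that of the vehicle-treated control group (C).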

Where [1] appears, read: endpoint: median survival time, dose: 108.0 mg/kg/injection, schedule: Q01DX Z (sc), vehicle: saline.
[2] abbreviates: endpoint: median survival time, dose: 180.0 mg/kg/injection, schedule: Q01DX Z (sc), vehicle: saline.

Consider `O=c1[nH]cc(F)c(=O)[nH]1`, for which the T/C runs as follows: (endpoint: mean survival time, dose: 65.0 mg/kg/injection, schedule: Q07DX009 (sc), vehicle: saline) 112 % of control; (endpoint: mean survival time, dose: 108.0 mg/kg/injection, schedule: Q07DX009 (sc), vehicle: saline) 99 % of control; (endpoint: mean survival time, dose: 180.0 mg/kg/injection, schedule: Q07DX009 (sc), vehicle: saline) 113 % of control; (endpoint: mean survival time, dose: 300.0 mg/kg/injection, schedule: Q07DX009 (sc), vehicle: saline) 162 % of control; (endpoint: median survival time, dose: 2.5 mg/kg/injection, schedule: Q01DX009 (ip), vehicle: saline) 93 % of control and 100 % of control; (endpoint: median survival time, dose: 3.0 mg/kg/injection, schedule: Q01DX Z (sc), vehicle: saline) 104 % of control. Besides, the T/C is 100 % of control (endpoint: median survival time, dose: 3.02 mg/kg/injection, schedule: Q01DX Z (sc), vehicle: saline); 105 % of control (endpoint: median survival time, dose: 4.0 mg/kg/injection, schedule: Q01DX Z (sc), vehicle: saline); 94 % of control and 100 % of control and 102 % of control (endpoint: median survival time, dose: 5.0 mg/kg/injection, schedule: Q01DX009 (ip), vehicle: saline); 103 % of control (endpoint: median survival time, dose: 5.0 mg/kg/injection, schedule: Q01DX009 (sc), vehicle: saline); 108 % of control (endpoint: median survival time, dose: 5.0 mg/kg/injection, schedule: Q01DX Z (sc), vehicle: saline); 100 % of control (endpoint: median survival time, dose: 5.04 mg/kg/injection, schedule: Q01DX Z (sc), vehicle: saline). The T/C by setting is: (endpoint: median survival time, dose: 8.4 mg/kg/injection, schedule: Q01DX009 (ip), vehicle: saline) 110 % of control; (endpoint: median survival time, dose: 8.4 mg/kg/injection, schedule: Q01DX009 (sc), vehicle: saline) 114 % of control; (endpoint: median survival time, dose: 8.4 mg/kg/injection, schedule: Q01DX013 (sc), vehicle: saline) 111 % of control; (endpoint: median survival time, dose: 8.4 mg/kg/injection, schedule: Q01DX Z (sc), vehicle: saline) 105 % of control and 108 % of control and 116 % of control; (endpoint: median survival time, dose: 10.0 mg/kg/injection, schedule: Q01DX009 (ip), vehicle: saline) 103 % of control and 109 % of control; (endpoint: median survival time, dose: 14.0 mg/kg/injection, schedule: Q01DX009 (ip), vehicle: saline) 121 % of control. Further, the T/C is 150 % of control (endpoint: median survival time, dose: 14.0 mg/kg/injection, schedule: Q01DX013 (sc), vehicle: saline); 100 % of control (endpoint: median survival time, dose: 14.0 mg/kg/injection, schedule: Q04DX003 (ip), vehicle: saline); 103 % of control (endpoint: median survival time, dose: 14.0 mg/kg/injection, schedule: Q04DX003 (sc), vehicle: saline); 122 % of control (endpoint: median survival time, dose: 16.0 mg/kg/injection, schedule: Q01DX Z (sc), vehicle: saline); 154 % of control (endpoint: median survival time, dose: 23.0 mg/kg/injection, schedule: Q01DX009 (sc), vehicle: saline); 161 % of control and 163 % of control (endpoint: median survival time, dose: 23.0 mg/kg/injection, schedule: Q01DX013 (sc), vehicle: saline). Also, the T/C runs as follows: (endpoint: median survival time, dose: 23.0 mg/kg/injection, schedule: Q04DX003 (ip), vehicle: saline) 107 % of control; (endpoint: median survival time, dose: 23.0 mg/kg/injection, schedule: Q04DX003 (sc), vehicle: saline) 102 % of control; (endpoint: median survival time, dose: 23.3 mg/kg/injection, schedule: Q01DX Z (sc), vehicle: saline) 108 % of control; (endpoint: median survival time, dose: 38.9 mg/kg/injection, schedule: Q01DX Z (sc), vehicle: saline) 100 % of control; (endpoint: median survival time, dose: 39.0 mg/kg/injection, schedule: Q01DX009 (ip), vehicle: saline) 109 % of control; (endpoint: median survival time, dose: 39.0 mg/kg/injection, schedule: Q01DX009 (sc), vehicle: saline) 121 % of control. Moreover, the T/C is, setting by setting: (endpoint: median survival time, dose: 39.0 mg/kg/injection, schedule: Q01DX013 (sc), vehicle: saline) 166 % of control and 167 % of control; (endpoint: median survival time, dose: 39.0 mg/kg/injection, schedule: Q01DX Z (sc), vehicle: saline) 163 % of control and 175 % of control; (endpoint: median survival time, dose: 64.0 mg/kg/injection, schedule: Q01DX Z (sc), vehicle: saline) 161 % of control; (endpoint: median survival time, dose: 65.0 mg/kg/injection, schedule: Q01DX009 (ip), vehicle: saline) 101 % of control; (endpoint: median survival time, dose: 65.0 mg/kg/injection, schedule: Q01DX009 (sc), vehicle: saline) 107 % of control; (endpoint: median survival time, dose: 65.0 mg/kg/injection, schedule: Q04DX003 (sc), vehicle: saline) 151 % of control. Also, the T/C is, setting by setting: (endpoint: median survival time, dose: 65.0 mg/kg/injection, schedule: Q07DX009 (sc), vehicle: saline) 114 % of control; (endpoint: median survival time, dose: 65.0 mg/kg/injection, schedule: Q07DX Z (sc), vehicle: saline) 115 % of control; under setting [1], 91 % of control; (endpoint: median survival time, dose: 108.0 mg/kg/injection, schedule: Q04DX003 (ip), vehicle: saline) 173 % of control; (endpoint: median survival time, dose: 108.0 mg/kg/injection, schedule: Q04DX003 (sc), vehicle: saline) 187 % of control; (endpoint: median survival time, dose: 108.0 mg/kg/injection, schedule: Q07DX009 (sc), vehicle: saline) 102 % of control. Also, the T/C (endpoint: median survival time, dose: 108.0 mg/kg/injection, schedule: Q07DX Z (sc), vehicle: saline) is 105 % of control; the T/C (endpoint: median survival time, dose: 128.0 mg/kg/injection, schedule: Q01DX Z (sc), vehicle: saline) is 155 % of control; the T/C under setting [2] is 120 % of control; the T/C (endpoint: median survival time, dose: 180.0 mg/kg/injection, schedule: Q04DX003 (ip), vehicle: saline) was 121 % of control; the T/C (endpoint: median survival time, dose: 180.0 mg/kg/injection, schedule: Q04DX003 (sc), vehicle: saline) is 184 % of control; the T/C (endpoint: median survival time, dose: 180.0 mg/kg/injection, schedule: Q07DX009 (sc), vehicle: saline) is 114 % of control. Moreover, the T/C (endpoint: median survival time, dose: 180.0 mg/kg/injection, schedule: Q07DX Z (sc), vehicle: saline) is 115 % of control; the T/C (endpoint: median survival time, dose: 300.0 mg/kg/injection, schedule: Q07DX009 (sc), vehicle: saline) was 169 % of control; the T/C (endpoint: median survival time, dose: 300.0 mg/kg/injection, schedule: Q07DX Z (sc), vehicle: saline) was 168 % of control.

Turning to `O=c1[nH]c(=S)c2[nH]c(=O)[nH]c2[nH]1`, the T/C was 100 % of control (endpoint: median survival time, dose: 3.0 mg/kg/injection, schedule: Q01DX Z (sc), vehicle: methylcellulose (MC)) and 100 % of control (endpoint: median survival time, dose: 5.0 mg/kg/injection, schedule: Q01DX Z (sc), vehicle: methylcellulose (MC)).

In the case of `C=CCNC(=O)NCC=C`, the T/C is, setting by setting: (endpoint: median survival time, dose: 100.0 mg/kg/injection, schedule: Q01DX001 (ip), vehicle: saline) 105 % of control; (endpoint: median survival time, dose: 100.0 mg/kg/injection, schedule: Q01DX001 (sc), vehicle: saline) 111 % of control; (endpoint: median survival time, dose: 100.0 mg/kg/injection, schedule: Q04DX003 (ip), vehicle: saline) 111 % of control; (endpoint: median survival time, dose: 100.0 mg/kg/injection, schedule: Q04DX003 (sc), vehicle: saline) 111 % of control; (endpoint: median survival time, dose: 200.0 mg/kg/injection, schedule: Q01DX001 (ip), vehicle: saline) 111 % of control; (endpoint: median survival time, dose: 200.0 mg/kg/injection, schedule: Q01DX001 (sc), vehicle: saline) 111 % of control. The T/C was 150 % of control (endpoint: median survival time, dose: 200.0 mg/kg/injection, schedule: Q01DX009 (ip), vehicle: saline) and 122 % of control (endpoint: median survival time, dose: 200.0 mg/kg/injection, schedule: Q04DX003 (ip), vehicle: saline).

Regarding `Cc1cc(N)c2cc(NC(=O)CCCCCCCCC(=O)Nc3ccc4nc(C)cc(N)c4c3)ccc2n1`, the T/C runs as follows: (endpoint: median survival time, dose: 65.0 mg/kg/injection, schedule: Q01DX Z (sc), vehicle: saline) 91 % of control; under setting [1], 91 % of control; (endpoint: median survival time, dose: 130.0 mg/kg/injection, schedule: Q01DX Z (sc), vehicle: saline) 91 % of control; under setting [2], 91 % of control; (endpoint: median survival time, dose: 216.0 mg/kg/injection, schedule: Q01DX Z (sc), vehicle: saline) 91 % of control; (endpoint: median survival time, dose: 300.0 mg/kg/injection, schedule: Q01DX Z (sc), vehicle: saline) 91 % of control. The T/C (endpoint: median survival time, dose: 360.0 mg/kg/injection, schedule: Q01DX Z (sc), vehicle: saline) is 91 % of control; the T/C (endpoint: median survival time, dose: 500.0 mg/kg/injection, schedule: Q01DX Z (sc), vehicle: saline) is 95 % of control; the T/C (endpoint: median survival time, dose: 600.0 mg/kg/injection, schedule: Q01DX Z (sc), vehicle: saline) was 91 % of control; the T/C (endpoint: median survival time, dose: 1000.0 mg/kg/injection, schedule: Q01DX Z (sc), vehicle: saline) is 95 % of control.

For the compound `CCc1nc(N)nc(N)c1-c1ccc(Cl)cc1`, under “endpoint: median survival time, dose: 108.0 mg/kg/injection, schedule: Q01DX Z (sc), vehicle: methylcellulose (MC)”, the T/C is 118 % of control.
